From paper PMC12956279 (2026)

Experiments:
Assay in all cases: in-gel dye staining after TBE-urea PAGE
Conditions in all cases: 100 mM KCl, 1 mM MgCl2; 40 mM HEPES pH 7.5, 10 µM dye; very low fluorescence
[1] = system: 4LE-v1 (DNA, aptamer) TCCTTCGCACAGCACATAGTAGGGATGATGCGGCAGTGGGCTTCGCAGAACAGTGTTTATTCTGCGAGGGGACTACCTGCCGTATAGCTCTGAATCAAGGATTTTAGGGAGGCGATTCCTCCTGCC
[2] = system: 4LE-v3 (DNA, aptamer) TCCTTCGCACAGCACACCTGCCGTATAGCTCTGAATCAATAGTAGGGATGATGCGGCAGTGGGCTTCGCAGAACAGTGTTTATTCTGCGAGGGGACTAGGATTTTAGGGAGGCGATTCCTCCTGCC
[3] = system: 4LE-v2 (DNA, aptamer) TCCTTCGCACAGCACACCTGCCGTATTAGTAGGGATGATGCGGCAGTGGGCTTCGCAGAACAGTGTTTATTCTGCGAGGGGACTAAGCTCTGAATCAAGGATTTTAGGGAGGCGATTCCTCCTGCC

Measured: binding

CC1=N/C(=C\c2cc(F)c(O)c(F)c2)C(=O)N1CC(F)(F)F
weak: [1] | [2] | [3]
